Test results: patent US6893834B2, “Assay for kinases and phosphatases” (Promega Corporation, priority 2000, dated 2005)

Key:
PI-5K = assay: Reaction specificity of PI-5K toward lipid substrates; assay type: biochemical; details: purified PI-5K 125 ng/ml, 15 min, room temperature; FIG. 9
Protocol: FIG. 9: Reaction specificity toward lipid substrates. Reactions according to the subject invention were performed with purified PI4P-5K (250 ng/ml) for 45 min at room temperature using 1 μg of different lipid substrates: PI3,4P (lane 1); PI3,5P2 (lane 2) and PI4,5P2 (lane 3). In addition to lipid substrates, all samples contained 10 μg of PS loaded on the membrane.
Lipids, 10 μg of PI4,5P2+20 μg of PS, were dissolved in chloroform:methanol (2:1) and loaded onto “SAM2”-brand membranes for PI-3K activity measurements. Likewise, 10 μg of PI4P was loaded onto “SAM2”-brand membranes for PI4P-5K activity measurements. The membranes were air dried and a reaction mixture containing 50 mM HEPES/NaOH, pH7.5, 100 mM NaCl, 10 mM MgCl2, 20 ng partially-purified PI-3K or 10 ng of purified PI4P-5K, 50 μM ATP supplemented with 1 μCi of γ-^32P-ATP was added onto the membrane containing the immobilized lipids.
Following incubation at room temperature, the reactions were stopped with 7.5 M guanidine chloride and the membranes were washed with 2M NaCl, followed by 2 M NaCl/1% H3PO4. The washed membranes were dried and subjected to scintillation counting.
This Example illustrates the reaction specificity toward lipid substrates. Here, a reaction was performed with purified PI-5K (125 ng/ml) for 15 min at room temperature using different lipid substrates: PI3,4P (lane 1); PI3,5P (lane 2) and PI4,5P2 (Lane 3).

3T3 NIH cells = assay: PI-3K activity associated with activated receptor in PDGF-stimulated 3T3 NIH cells; assay type: cell-based; details: PDGF 50 ng/ml, 5 min, 37° C.; reaction 60 min, PI4,5P2 (10 μg) + PS (20 μg); FIG. 3
Protocol: FIG. 3: Detection of PI-3K activity associated with activated receptor. 3T3NIH cells (5×10^7 cells) were treated without (lane 1) or with (lane 2) PDGF (50 ng/ml for 5 min at 37° C.) and PI-3K was co-immunoprecipitated using anti-phosphotyrosine specific antibodies. The PI-3K reactions were run for 60 min using PIP2 (10 μg)+PS (20 μg) as substrates.
In resting cells, PI-3K is located in the cytosol. However, upon cell stimulation, the enzyme is recruited to the plasma membrane where it is associated with particular receptors and is involved in further propagation of the signal. This example illustrates that the described method allows to measure PI-3K activity associated with activated receptor. 3T3 NIH cells (0.5×10^7 cells) were starved oveminght in serum-free medium. PDGF (50 ng/ml) was added to the starved cells and the induction was carried out for 5 min at 37° C. Following the PDGF induction, cells were washed once with PBS while on the plate, scraped into PBS, transferred to a centrifuge tube, pelleted by centrifugation. The cell pellet was lysed and activated receptor-PI-3K complex was iminunoprecipitated using anti-phosphotyrosine specific antibodies. The PI-3K reaction was run for 60 min using PI4,5P2 (10 μg) as substrate, immobilized on “SAM2”-brand membranes, together with 20 μg of carrier lipid (PS).

Row | Substance | substrate for PI-5K (phosphorylation, CPM) (PI-5K) | PI-3K activity co-immunoprecipitated with anti-phosphotyrosine antibodies (3T3 NIH cells)
1 | D-myo-phosphatidylinositol 3,5-bisphosphate [PI3,5P] | not substrates | –
2 | platelet-derived growth factor [PDGF] | – | increase in PI-3K activity
3 | D-myo-phosphatidylinositol 4,5-bisphosphate [PI4,5P] | not substrates | –
4 | D-myo-phosphatidylinositol 3,4-bisphosphate [PI3,4P] | suitable substrate | –
